Laboratory results as given in US20100099640A1, “TISSUE DEGENERATION PROTECTION” (priority 2007, published 2010).

Legend:
[1] = tested on: mouse pancreatic islets, β-cell line INS-1; conditions: direct action on β-cells; cited from earlier work
[2] = tested on: Chinese hypertensive men and women; conditions: cited from earlier work
3T3-L1 adipocytes = test: Triglyceride (Oil red O) accumulation during differentiation of 3T3-L1 adipocytes; assay type: cell-based, mouse
Description: 3T3-L1 mouse preadipocytes were purchased from the American Type Culture Collection (ATCC). They are cultivated in DHG medium (Dulbecco's modified Eagle's medium+High Glucose 4.5 g/l, GibcoBRL) supplemented with 10% FCS (foetal calf serum, GibcoBRL) and incubated a 37 C+5% CO2 incubator in a humidified atmosphere. For pre-adipocyte differentiation, 3T3-L1 cells were seeded at 50% confluence 3 days before the beginning of the differentiation programme. Confluent cell monolayers (day 0) are switched for 48 h to media containing the adipogenic cocktail: “DHG-L1” medium (DHG that contains 1.5 g/l NaHCO3) supplemented with 10% FCS, 5 μg/ml insulin, 300 μM dibutyryl-cyclicAMP (dbcAMP) and 1 μM dexamethasone. The cells were then refeeded every other day with DHG-L1 containing 10% FCS and 5 μg/ml insulin. At the end, 80-90% of cells were differentiated. […]
To characterize the state of (de)differentiation obtained in the presence of the molecules of interest, triglycerides present in the cells were stained with Oil red O (a dye of the neutral lipids). The absorbance of cell monolayers at 490 nm was measured in a spectrophotometer.

[3] = tested on: RNA expression in aortic arch; test: Real-time RT-PCR of RNA expression in aortic arch of treated DKO mice; assay type: in vivo, mouse
Description: Homozygous LDL-receptor-knockout mice (LDLR^(−/−)), heterozygous ob/+, and C57BL6 mice were purchased from Jackson Laboratory, Bar Harbor, Me. LDLR^(−/−) mice were backcrossed into a C57BL6 background to the 10th generation. To obtain DKO mice with combined leptin deficiency (ob/ob) and LDL-receptor deficiency, LDLR^(−/−) and ob/+ mice were crossed. All offspring were genotyped by polymerase chain reaction (PCR) techniques. All mice were housed at 22° C. on a fixed 12/12-hour light/dark cycle. Experimental procedures in animals were performed in accordance with protocols approved by the Institutional Animal Care and Research Advisory Committee. All mice were fed standard chow containing 4% fat (Pavan Service). Food intake was ≈5.7 g/d. Mice (about 50 g) were treated with stevioside (N=14; 10 mg/kg), steviol (N=9; 5 mg/kg) or placebo (N=17) for 12 weeks between 12 and 24 weeks of age. Stevioside (Molecular weight: 804) was dissolved in water (1 mg/ml) and 500 μl of the solution was administered orally. Steviol (Molecular weight: 318) was dissolved in water containing 6% NaHCO3 (1 mg/ml) and 250 μl of the solution was administered orally.
The level of RNA expression in extracts of white visceral (intra-abdominal) adipose tissue and aortic arch was measured by real-time reverse transcription (RT)-PCR. Total RNA was extracted with the Trizol reagent (InVitrogen) and purified on an RNeasy kit column (Qiagen). First-strand cDNA was generated from total RNA by RT using random primers from Takara and Superscript III reverse transcriptase (InVitrogen). Quantitative real-time PCR was performed using SybrGreen master mix according to the supplier protocols (Applied Biosystems).). Oligonucleotides (InVitrogen) used as forward primer (F) and reverse primer (R) were: for mouse PPARalpha: F: 5′-[…]-3′; R: 5′-[…]-3′; for mouse PPARgamma: F: 5′-[…]-3′; R: 5′-GTCAGCGGGTGGGACTTTC-3′; for mouse FABP4: F: 5′-AACTGGGCGTGGAATTCG-3′; R: 5′-[…]-3′; for mouse iNOS: F: 5′-[…]-3′; R: 5′-[…]-3′; for mouse GLUT-4: F: 5′-[…]-3′; R: 5′-[…]-3′; for mouse IRS-1: F: 5′-[…]-3′; R: 5′-CGCCTCGGGAAGAGACAGT-3′; for mouse IRS-2: F: 5′-[…]-3′: R: 5′-[…]-3′; for mouse LXRalpha: F: 5′-[…]-3′; R: 5′-[…]-3′; for mouse SOD1: F: 5′-[…]-3′; R: 5′-[…]-3′; for mouse SOD2: F: 5′-TCGGTGGCGTTGAGATTGT; R: 5′-[…]-3′; for mouse SOD3: F: 5′-[…]-3′; R: 5′-GCTGCCGGAAGAGAACCAA-3′; and for mouse β-actin (housekeeping gene), F: 5′-[…]-3′; R: 5′-[…]-3′. The level of mRNA expression was calculated using the threshold cycle (Ct) value, i.e., the number of PCR cycles at which the fluorescent signal during the PCR reaches a fixed threshold. For each sample, the Ct both for the gene of interest and for the housekeeping gene β-actin were determined to calculate ΔCt,sample (Ct,target gene−Ct,housekeeping gene), thus normalizing the data and correcting for differences in amount and/or quality between the different RNA samples. The expression levels were related to an external calibrator consisting of intra-abdominal adipose tissue from C57BL6 control mice. Subsequently, ΔΔCt (ΔCt,sample−ΔCt,calibrator) was determined, and the relative expression levels were calculated from 2^−ΔΔCt according to the manufacturer's instructions (Applied Biosystems). RNA expression levels are thus indicated as arbitrary units ±SD

[4] = tested on: everted gastrointestinal sacs of rats and Caco-2 cell layers; conditions: everted gastrointestinal sacs of rats, Caco-2 cell layers; cited from earlier work
[5] = aortic arch, stevioside 10 mg/kg orally, 12 weeks

C=C1C[C@@]23CC[C@H]4C(C)(CCC[C@@]4(C)C(=O)O[C@@H]4O[C@H](CO)C(O)[C@H](O)C4O)[C@@H]2CCC1(OC1O[C@H](CO)C(O)C(O)C1OC1O[C@H](CO)C(O)[C@H](O)C1O)C3 (stereo in doubt) [stevioside, Kaur-16-en-18-oic acid, 13-[(2-O-b-D-glucopyranosyl-b-D-glucopyranosyl)oxy]-, b-D-glucopyranosyl ester, (4a)-]
insulin secretion [1]: stimulation of insulin secretion
lowering of systolic and diastolic blood pressure ([2]; 750 mg or 1500 mg of stevioside a day for one or two years): about 7%
fasting glucose concentrations ([2]; long-term administration, volunteers with normal glucose levels): did not reveal effects
triglyceride accumulation in adipocytes (3T3-L1 adipocytes; 50-micromolar (lowest concentration), added during the 7-days differentiation process): did not significantly reduce
lipid deposition (triglyceride accumulation) in adipocytes (3T3-L1 adipocytes; 200-micromolar (4x higher concentration), added during differentiation, steviol dissolved with DMSO): inhibited
eNOS ([3]; aorta of stevioside-treated mice): not affected
expression of IRS2 [3, 5]: increased expression
expression of PPARalpha [3, 5]: did not increase
expression of SOD1 [3, 5]: increased expression
expression of SOD2 [3, 5]: increased expression
expression of the inflammatory iNOS [3, 5]: decreased the expression
uptake by the intestinal tract [4]: extremely low
